{
  "source": "patent US20100303936A1",
  "about": "“METHOD OF REDUCING FAT ACCUMULATION AND INDUCING WEIGHT LOSS” (Bionovo, Inc. A Delaware Corporation, priority 2009, published 2010)",
  "assay": "Ovariectomized mice on high fat diet (HFD): body weight, abdominal fat, uterus and mammary gland",
  "format": "in vivo",
  "description": "To test the effects of the two PEs (3 and 39) in animals, 10 week old ovariectomized C57/B16 female mice were placed on a high fat diet (HFD) for 50 days to increase body weight and abdominal fat. After gaining weight, the mice were treated orally for 6 weeks with the two PEs separately while being kept on HFD. The vehicle-treated (placebo) control mice continued to gain weight (9% weight increase) even after treatment. The E2-treated mice, which served as positive controls lost 20.5% of their weight. […] The abdominal fat weight dropped by 48% or 32% in the PE-treated groups (3, 39, respectively) and 80% in E2-treated mice compared to control. The growth of mammary gland (MG) and uteri was assessed by measuring MG and uterine weights and by analyzing MG morphology in whole-mounts. […] FIG. 4.",
  "key": {"[1]": {"conditions": "ovariectomized mice on HFD, 42 days"}},
  "note": "Entries after “also recorded” stand apart in the source; their conditions may differ.",
  "data": [
    {"compound": "C[C@]12CC[C@@H]3c4ccc(O)cc4CC[C@H]3[C@@H]1CC[C@@H]2O", "note": "[Extract E2, estradiol]", "values": [
      {"measurement": "body weight lost", "setting": "ovariectomized C57/B16 female mice on HFD, treated 6 weeks", "value": 20.5, "unit": "%"},
      {"measurement": "abdominal fat weight drop compared to control", "setting": "ovariectomized mice on HFD, 6 weeks treatment", "value": 80, "unit": "%"},
      {"measurement": "mammary gland morphology (ducts, histology / whole-mounts)", "setting": "[1]", "value": "elongation and branching of ducts in mammary tissue; also recorded: induced elongation and branching of mammary ducts"},
      {"measurement": "uterine weight (in words)", "setting": "[1]", "value": "induced uterine tissue weight gain; also recorded: induced significant weight gain in the uterus"}
    ]}
  ]
}
